Measurements as given in US20090117653A1 (Governors of the University of Alberta, priority 2007, published 2009).

Experiments:
Format in all cases: cell-based, human
[1] = tested on: rBM cells (MM BMC); CD138+/CD56+ population; assay: Apoptosis within rBM by flow cytometry measuring AnnexinV reactivity
Description: (§1) For preclinical studies, the rBM was grown for 14 days to allow for stratification of the culture and expansion of the malignant cells and the stromal layer. A single treatment of either melphalan or bortezomib was administered in a fresh aliquot of Growth Medium overlaid on top of the 3-D culture. After 7 days of treatment, fresh medium was added and cells were allowed to recover for an additional period of 7 days, after which cells were isolated using the Cell Recovery Solution and the effects of treatment were analyzed, and for CFU activity of drug resistant LRC.
For flow cytometry, cells were isolated from 3-D cultures with Cell Recovery Solution, stained with various FITC tagged CD antigens or Annexin V-PE and analyzed by flow cytometry to measure the extent of proliferation and apoptosis using a FACSort flow cytometer (BD, Oakville, ON). Data was analyzed with CellQuest Pro software.
FIGS. 4a-d illustrate a comparative evaluation of two MM therapeutics in a 3-D BM cell culture assembly in accordance with various embodiments. […]
FIG. 4b illustrates apoptosis within rBM as assessed by flow cytometry measuring AnnexinV reactivity post treatment with melphalan (left panel) or bortezomib (middle panel). MM specific cell killing by bortezomib was monitored in the CD138+/CD56+ population by AnnexinV reactivity (right panel).

[2] = tested on: clonotypic MM cells in rBM (MM BMC); assay: Reduction of clonal cells in 3-D rBM culture, RQ-PCR with patient specific primers; conditions: rBM grown 14 days, single treatment 7 days, 7 days recovery
Description: as §1
For real-time quantitative PCR (RQ-PCR), total genomic DNA was isolated with TRIzol™ reagent (Invitrogen, Burlington, ON) per manufacturer's instructions. […] Controls included cloned VDJ sequences for each patient used to generate a standard curve for the specific clonotypic sequence and comparison with a standard curve for a housekeeping gene, β2 microglobulin (normalized to the two copies of B2M templates/cell), to quantify the number of templates in unknown samples before and after 3-D culture. […]
FIG. 4a illustrates the reduction of the clonal cells as measured by RQ-PCR with patient specific primers (melphalan p=0.016, bortezomib p=0.39). […] Treatment of rBM with melphalan led to a 60% decrease in the number of clonotypic cells as measured by RQ-PCR.

[3] = tested on: stromal compartment of rBM; conditions: brightfield microscopy; TRAP, Oil Red, ALP staining at rEnd; FIG. 4c, 4d
Description: as §1
For microscopy, confocal z-slices were imaged on a Carl Zeiss confocal LSM 510 microscope equipped with appropriate filters and the 3D reconstruction was done using Zeiss 510 image analysis software. Quantification of LRC positioning was performed with Imaris 3.2.2 software, Bitplane AG (Zurich, Switzerland). Stromal cells were stained with TRAP, Oil Red, Alkaline phosphatase, or Alizarin Red according to the manufacturer's instructions and imaged on Zeiss Axioskop digital microscope. For fibronectin, phalloidin and N-cadherin staining, cells were fixed with 1% neutral buffered formalin for 10 min at RT, permeabilized with 0.5% Triton X-100 and non-specific binding was blocked with 1% BSA for 1 hr at RT. […]

LRCs (putative MM-CSC) = assay: Persistence of label retaining cells (LRC) in melphalan treated 3-D cultures of mobilized blood cells, CFSE flow cytometry; conditions: mobilized blood mononuclear cells, 14 days in 3-D, then treated
Description: In the embodiments illustrated in FIGS. 1-7, 3-D cell culture and other techniques were performed. BMC were isolated from BM aspirates by Ficoll-Paque gradient centrifugation per manufacturer's instructions. Surface coating (rEnd) was created by incubating tissue culture plates with fibronectin/collagen I (1:1) in PBS at a final concentration of 5 μg/1 cm^2 of each protein. Plates were incubated for <30 min at room temperature (RT) and the remaining fluid was removed and was replaced with the rBM layer consisting of the BMC cells in an ECM mixture of Matrigel™/fibronectin (2:1 v/v). For analysis of proliferation and LRCs, cells were labeled with 0.25 μM CFSE for 15 min at 40° C. […]
For CFU assays, CFSE labeled cells were isolated from the 3-D culture and the CFSE+ cells were sorted on an EPICS ALTRA cell sorter, by gating on the live cells based on the forward and side scatter and on the CFSE+ population based on fluorescence intensity in the FL1 channel (see FIG. 6a, below). […] The MethoCult™ cultures were incubated for 14 days and the resulting colonies were counted. […]
FIG. 6a illustrates the flow cytometry profile of the LRCs. The gate for sorting was set to isolate CFSE-high cells and the percentage of LRCs was calculated as the percent of CFSE-high cells in the live cell fraction of the 3-D culture.

For `CC(C)C[C@H](NC(=O)[C@H](Cc1ccccc1)NC(=O)c1cnccn1)B(O)O` [bortezomib], the “apoptosis in CD138+CD56+ PC population (AnnexinV reactivity)” value ([1]; CD138+/CD56+ population, FIG. 4b right panel) was “the only cell population subject to bortezomib induced apoptosis” and the “reduction in clonotypic cells (in words)” value ([2]; FIG. 4a, p=0.39) was “neither a significant reduction in clonotypic cells”.
With `N[C@@H](Cc1ccc(N(CCCl)CCCl)cc1)C(=O)O` [melphalan] the “apoptosis in rBM (AnnexinV reactivity)” value ([1]; overall rBM, post treatment, FIG. 4b, 4c) was “induced apoptosis of all cell types within the hematopoietic hierarchy”, the “effect on stromal compartment of rBM” value [3] was “remained intact” and the “decrease in the number of clonotypic cells as measured by RQ-PCR” value ([2]; p=0.016) was 60%. For the same compound, the “depletion in 3-D of other hematopoietic cells” value (LRCs (putative MM-CSC)) was at least 50% and the “enrichment of LRCs in treated 3-D cultures” value (LRCs (putative MM-CSC); CFSE labeled, FIG. 6a) was 50%.
